# Patent publication US10206937B2, “Boronic acid derivatives and therapeutic uses thereof” (Qpex Biopharma, Inc., priority 2014, dated 2019)
# Test system: strains of Enterobacteriaceae producing various carbapenemases (class A, D and B; 104 strains)
# Experiment: Antibiotics potentiation by Compound 27 (MIC; meropenem, doripenem, ertapenem, cefepime)
# Assay type: cell-based
# Conditions: + 27 = with Compound 27 at fixed 4 μg/ml
structure (smiles),measurement,setting,value
COc1ccc2c(c1C(=O)O)OB(O)C(Sc1nnc(N)s1)C2 (stereo not shown) [C + 27],MIC,strain CF1012 Citrobacter freundii (KPC-2),X (MIC of less than 1 μg/mL)
same,MIC,strain CF1021 Citrobacter freundii (CMY-type; VIM-1),X (MIC of less than 1 μg/mL)
same,MIC,"strain CF1022 Citrobacter freundii (SHV-12(2be), TEM-OSBL(2b); IMP-8)",X (MIC of less than 1 μg/mL)
same,MIC,"strain CF1023 Citrobacter freundii (SHV-12(2be), TEM-OSBL(2b); CTX-M-3; CMY-34; NDM-1)",X (MIC of less than 1 μg/mL)
same,MIC,strain CL1080 Enterobacter cloacae (IMP-1),Y (MIC of 1 μg/mL to 10 μg/mL)
same,MIC,"strain EA1019 Enterobacter aerogenes (SHV-5, VIM-1)",Y (MIC of 1 μg/mL to 10 μg/mL)
same,MIC,strain EC1007 Escherichia coli (KPC-3),X (MIC of less than 1 μg/mL)
same,MIC,"strain EC1061 Escherichia coli (NDM-1, CMY-6)",X (MIC of less than 1 μg/mL)
same,MIC,"strain EC1062 Escherichia coli (OXA-48, CTX-M-15)",X (MIC of less than 1 μg/mL)
same,MIC,"strain EC1064 Escherichia coli (NDM-1, CMY-6, CTX-M-15)",Z (MIC of greater than 10 μg/mL)
same,MIC,strain EC1065 Escherichia coli (IMP-1),X (MIC of less than 1 μg/mL)
same,MIC,strain EC1068 Escherichia coli (VIM-1),Y (MIC of 1 μg/mL to 10 μg/mL)
same,MIC,strain EC1069 Escherichia coli (CTX-M-27; NDM-1),X (MIC of less than 1 μg/mL)
same,MIC,strain EC1070 Escherichia coli (TEM-OSBL(2b); CMY-42; NDM-5),X (MIC of less than 1 μg/mL)
same,MIC,strain EC1072 Escherichia coli (CTX-M-3; NDM-1),Y (MIC of 1 μg/mL to 10 μg/mL)
same,MIC,strain ECL1004 Enterobacter cloacae (NMC-A),X (MIC of less than 1 μg/mL)
same,MIC,"strain ECL1026 Enterobacter cloacae (KPC-2, TEM-1)",X (MIC of less than 1 μg/mL)
same,MIC,"strain ECL1036 Enterobacter cloacae (KPC-3, TEM-1)",X (MIC of less than 1 μg/mL)
same,MIC,strain ECL1045 Enterobacter cloacae (VIM-1),Y (MIC of 1 μg/mL to 10 μg/mL)
same,MIC,"strain ECL1055 Enterobacter cloacae (KPC-3, TEM)",X (MIC of less than 1 μg/mL)
same,MIC,"strain ECL1057 Enterobacter cloacae (NDM-1, TEM-1, CTX-M-15)",Z (MIC of greater than 10 μg/mL)
same,MIC,"strain ECL1058 Enterobacter cloacae (KPC-3, SHV-11, TEM-1)",X (MIC of less than 1 μg/mL)
same,MIC,"strain ECL1059 Enterobacter cloacae (KPC-3, SHV-12, TEM-1)",X (MIC of less than 1 μg/mL)
same,MIC,"strain ECL1061 Enterobacter cloacae (KPC-3, Hyper AmpC expression)",Y (MIC of 1 μg/mL to 10 μg/mL)
same,MIC,strain ECL1082 Enterobacter cloacae (VIM-1),Y (MIC of 1 μg/mL to 10 μg/mL)
same,MIC,strain ECL1084 Enterobacter cloacae (CTX-M-15; ACT-16; NDM-1),X (MIC of less than 1 μg/mL)
same,MIC,"strain ECL1085 Enterobacter cloacae (SHV-31(2be), TEM-1(2b); CTX-M-15; NDM-1)",X (MIC of less than 1 μg/mL)
same,MIC,"strain ECL1086 Enterobacter cloacae (VIM-31, OXA-48(c))",Y (MIC of 1 μg/mL to 10 μg/mL)
same,MIC,strain ECL1087 Enterobacter cloacae (VIM-1),Y (MIC of 1 μg/mL to 10 μg/mL)
same,MIC,strain ECL1088 Enterobacter cloacae (TEM-1(2b); CTX-M-14; ACT-type; VIM-1),Y (MIC of 1 μg/mL to 10 μg/mL)
same,MIC,strain ECL1089 Enterobacter cloacae (ACT-type; IMP-1),Z (MIC of greater than 10 μg/mL)
same,MIC,strain ECL1090 Enterobacter cloacae (TEM-1(2b); CTX-M-22; ACT-type; IMP-8),Y (MIC of 1 μg/mL to 10 μg/mL)
same,MIC,strain ECL1091 Enterobacter cloacae (VIM-1),Y (MIC of 1 μg/mL to 10 μg/mL)
same,MIC,strain ECL1092 Enterobacter cloacae (TEM-OSBL(2b); ACT-32; VIM-1),X (MIC of less than 1 μg/mL)
same,MIC,strain ECL1093 Enterobacter cloacae (TEM-OSBL(2b); ACT-32; VIM-1),X (MIC of less than 1 μg/mL)
same,MIC,strain ECL1094 Enterobacter cloacae (VIM-1),Y (MIC of 1 μg/mL to 10 μg/mL)
same,MIC,"strain ECL1096 Enterobacter cloacae (CMY-4, VIM-4, OXA-48(c))",X (MIC of less than 1 μg/mL)
same,MIC,"strain ECL1097 Enterobacter cloacae (SHV-31(2be), TEM-OSBL(2b); CTX-M-15; ACT-31; NDM-1)",X (MIC of less than 1 μg/mL)
same,MIC,strain ECL1098 Enterobacter cloacae (TEM-OSBL(2b); DHA-1; ACT-16; NDM-1),X (MIC of less than 1 μg/mL)
same,MIC,strain KP1001 Klebsiella pneumoniae (KPC TEM SHV),Y (MIC of 1 μg/mL to 10 μg/mL)
same,MIC,strain KP1002 Klebsiella pneumoniae (KPC TEM SHV),X (MIC of less than 1 μg/mL)
same,MIC,strain KP1003 Klebsiella pneumoniae (KPC TEM SHV),X (MIC of less than 1 μg/mL)
same,MIC,"strain KP1004 Klebsiella pneumoniae (KPC-2, TEM-1, SHV-11)",X (MIC of less than 1 μg/mL)
same,MIC,strain KP1008 Klebsiella pneumoniae (KPC-2),X (MIC of less than 1 μg/mL)
same,MIC,"strain KP1014 Klebsiella pneumoniae (VIM-1, TEM, SHV)",X (MIC of less than 1 μg/mL)
same,MIC,"strain KP1054 Klebsiella pneumoniae (VIM-1, SHV-11)",X (MIC of less than 1 μg/mL)
same,MIC,"strain KP1059 Klebsiella pneumoniae (VIM-1, SHV-11)",Y (MIC of 1 μg/mL to 10 μg/mL)
same,MIC,"strain KP1061 Klebsiella pneumoniae (KPC-3, SHV-11, TEM-1)",X (MIC of less than 1 μg/mL)
same,MIC,"strain KP1064 Klebsiella pneumoniae (KPC-2, SHV-11, TEM-1)",Y (MIC of 1 μg/mL to 10 μg/mL)
same,MIC,"strain KP1065 Klebsiella pneumoniae (VIM-1, SHV-11)",X (MIC of less than 1 μg/mL)
same,MIC,"strain KP1070 Klebsiella pneumoniae (KPC-2, SHV-11, TEM-1)",X (MIC of less than 1 μg/mL)
same,MIC,"strain KP1074 Klebsiella pneumoniae (KPC-3, SHV-11, TEM)",Z (MIC of greater than 10 μg/mL)
